{
  "source": "patent US20040253266A1",
  "about": "“Biological compositions and methods for treatment of esophageal cancer” (priority 2003, published 2004)",
  "key": {"esophageal cancer [1]": {"system": "esophageal cancer", "assay": "Wistar rat model of human esophageal cancer (MBNA-induced), tumor growth", "format": "in vivo, Wistar rats", "conditions": "31st day, after 30 days treatment; AY/NY 1.5 ml per day oral, VDS 3.0 mg/kg i.v. once a week", "description": "(§1) The oral composition comprising 10^8 cells per ml of activated and conditioned yeast cells of the strain Saccharomyces cerevisiae Hansen strain AS2.375 was prepared by the methods described in Section 5.1 and subsections therein.\nThe four experimental groups were triplicated (i.e., using a total of 120 rats in the experimental groups)."}, "esophageal cancer [2]": {"system": "esophageal cancer", "assay": "Wistar rat model of esophageal cancer, survival over 6 months", "format": "in vivo, Wistar rats", "conditions": "for Number of live animals remaining in the groups after 30 days of treatment: 30 rats per group", "description": "The following example illustrates the benefit of a biological composition of the invention in a Wistar rat model of original position engrafted human esophageal cancer. The survival time of rats after tumor injection and treatment was studied.\nas §1\nThe animals were prepared in a similar manner as described in Section 6.1.\nThe rats that were fed with MBNA for 30 days were divided into 4 experimental groups of ten rats per group and one control group. The four experimental groups were triplicated (i.e., using a total of 120 rats in the experimental groups). In group 2AY, the rats received 1.5 ml of the biological composition in two doses per day. In group 2NY, the rats received 1.5 ml of the untreated yeast cells in two doses per day. […] In group 2CK1, the rats received 1.5 ml of physiological saline in two doses per day.\nThe rats received the biological compositions, untreated yeast cells, VDS or saline on the same day as the tumor cells were transplanted. The rats in group 2CK2 also started receiving saline on the same day as the other four groups. […] The rats were observed over 6 months from the day of tumor inoculation and survival was recorded. The weight of the rats, the weight of the esophagus, and the weight of the tumor were determined by standard techniques."}, "[3]": {"system": "esophageal tumor SGA-73 cells", "assay": "TA1 mouse model of human esophageal cancer (SGA-73 cells s.c.), tumor growth", "format": "in vivo, TA1 mice", "conditions": "31st day, after 30 days treatment; AY/NY 0.3 ml per day oral, CTX 30 mg/kg per day s.c.", "description": "as §1\nThe mice injected with tumor cells were kept for 3 days and then divided into 4 experimental groups of ten mice per group and one control group. The four experimental groups were triplicated (i.e., using a total of 120 mice in the experimental groups).\n(§2) The mice received the biological compositions, untreated yeast cells, CTX or saline on the same day as the tumor cells were transplanted. The mice in group CK2 also started receiving saline on the same day as the other four groups. The biological compositions, untreated yeast cells and saline were administered orally by a feeding tube and the CTX by subcutaneous injection for 30 consecutive days."}, "[4]": {"system": "esophageal tumor SGA-73 cells", "assay": "TA1 mouse model of human esophageal cancer (SGA-73 cells), survival over 6 months", "format": "in vivo, TA1 mice", "conditions": "for Number of live animals remaining in the groups after 30 days of treatment: 30 mice per group", "description": "The survival time of mice after tumor injection and treatment was studied.\nas §1\nThe animals were prepared in a similar manner as described in Section 8.1.\nThe mice injected with tumor cells were kept for 3 days and then divided into 4 experimental groups of ten mice per group and one control group. The four experimental groups were triplicated (i.e., using a total of 120 mice in the experimental groups). In group 2AY, the mice received 0.5 ml of the biological composition once per day. In group 2NY, the mice received 0.5 ml of the untreated yeast cells once per day. In group 2CTX, the mice were injected subcutaneously with 45 mg of cyclophosphamide (CTX) per kg body weight per day. In group 2CK1, the mice received 0.5 ml of physiological saline once per day.\nas §2, with “2CK2” for “CK2”, “days. The mice were observed over 6 months from the day of tumor inoculation and survival was recorded. The weight of the mice and the weight of the tumor were determined by standard techniques.” for “days.”"}, "[5]": {"conditions": "0 month after cessation of treatment"}, "[6]": {"conditions": "1 month after cessation of treatment"}, "[7]": {"conditions": "2 months after cessation of treatment"}, "[8]": {"conditions": "3 months after cessation of treatment"}, "[9]": {"conditions": "4 months after cessation of treatment"}, "[10]": {"conditions": "5 months after cessation of treatment"}, "[11]": {"conditions": "6 months after cessation of treatment"}, "[12]": {"conditions": "rats that survived the 6 month observation"}, "[13]": {"conditions": "mice that survived the 6 month observation"}},
  "data": [
    {"smiles": "CC[C@]1(O)C[C@@H]2CN(CCc3c([nH]c4ccccc34)[C@@](C(=O)OC)(c3cc4c(cc3OC)N(C)[C@H]3[C@@](O)(C(N)=O)[C@H](O)[C@]5(CC)C=CCN6CC[C@]43[C@@H]65)C2)C1", "note": "[VDS, vindesine]", "values": [
      {"measurement": "mean weight of rats and standard deviation", "setting": "esophageal cancer [1]", "value": "173 ± 15", "unit": "g"},
      {"measurement": "mean weight of tumor nodules and standard deviation", "setting": "esophageal cancer [1]", "value": "281 ± 31", "unit": "mg"},
      {"measurement": "Number of live animals remaining in the groups after 30 days of treatment", "setting": "esophageal cancer [2]; [5]", "value": 30},
      {"measurement": "Number of live animals remaining in the groups after 30 days of treatment", "setting": "esophageal cancer [2]; [6]", "value": 30},
      {"measurement": "survival time of rats", "setting": "esophageal cancer [2]; 2AY/2NY 1.5 ml per day oral, 2VDS 3.0 mg/kg per week for four weeks", "value": "all died after five months"},
      {"measurement": "Number of live animals remaining in the groups after 30 days of treatment", "setting": "esophageal cancer [2]; [7]", "value": 30},
      {"measurement": "Number of live animals remaining in the groups after 30 days of treatment", "setting": "esophageal cancer [2]; [8]", "value": 30},
      {"measurement": "Number of live animals remaining in the groups after 30 days of treatment", "setting": "esophageal cancer [2]; [9]", "value": 21},
      {"measurement": "Number of live animals remaining in the groups after 30 days of treatment", "setting": "esophageal cancer [2]; [10]", "value": 3},
      {"measurement": "Number of live animals remaining in the groups after 30 days of treatment", "setting": "esophageal cancer [2]; [11]", "value": 0},
      {"measurement": "mean weight of esophagus and standard deviation", "setting": "esophageal cancer [2]; [12]", "value": "all animals dead"},
      {"measurement": "mean weight of rats and standard deviation", "setting": "esophageal cancer [2]; [12]", "value": "all animals dead"},
      {"measurement": "mean weight of tumor nodules and standard deviation", "setting": "esophageal cancer [2]; [12]", "value": "all animals dead"}
    ]},
    {"smiles": "O=P1(N(CCCl)CCCl)NCCCO1", "note": "(stereo not shown) [CTX, cyclophosphamide]", "values": [
      {"measurement": "mean weight of mice and standard deviation", "setting": "[3]", "value": "18.2 ± 2.8", "unit": "g"},
      {"measurement": "mean weight of tumor nodules and standard deviation", "setting": "[3]", "value": "384 ± 31", "unit": "mg"},
      {"measurement": "Number of live animals remaining in the groups after 30 days of treatment", "setting": "[4]; [5]", "value": 30},
      {"measurement": "Number of live animals remaining in the groups after 30 days of treatment", "setting": "[4]; [6]", "value": 30},
      {"measurement": "survival time of mice", "setting": "[4]; 2AY/2NY 0.5 ml per day oral, 2CTX 45 mg/kg per day s.c.", "value": "all died after four months"},
      {"measurement": "Number of live animals remaining in the groups after 30 days of treatment", "setting": "[4]; [7]", "value": 28},
      {"measurement": "Number of live animals remaining in the groups after 30 days of treatment", "setting": "[4]; [8]", "value": 22},
      {"measurement": "Number of live animals remaining in the groups after 30 days of treatment", "setting": "[4]; [9]", "value": 18},
      {"measurement": "Number of live animals remaining in the groups after 30 days of treatment", "setting": "[4]; [10]", "value": 0},
      {"measurement": "Number of live animals remaining in the groups after 30 days of treatment", "setting": "[4]; [11]", "value": 0},
      {"measurement": "mean weight of mice and standard deviation", "setting": "[4]; [13]", "value": "all animals dead"},
      {"measurement": "mean weight of tumor nodules and standard deviation", "setting": "[4]; [13]", "value": "all animals dead"}
    ]}
  ]
}
